Tests used:
L1210 = test: Antitumor activity against mouse L1210 cells allografted in ip dosed BDF1 mouse assessed as increase of life span of host measured up to 45 days; assay type: functional; settings: 1080 h
Mus musculus = test: Toxicity in ip dosed BDF1 mouse; assay type: organism-based; settings: in vivo
[1] = Octanol-water partition coefficient, log P of the compound; assay type: physicochemical
[2] = Therapeutic index, ratio of LD10 for BDF1 mouse to ED50 for mouse L1210 cells allografted in ip dosed BDF1 mouse; assay type: organism-based; settings: in vivo, read-out: TI
[3] = Octanol-water partition coefficient, log P of the compound at pH 7.4; assay type: physicochemical

O=NN(CCCl)C(=O)N[C@H]1CCCC[C@H]1Cl (relative stereo)
ED50 (L1210): 54 mg/kg | LD10 (Mus musculus): 96 mg/kg | logP ([1]; read-out: logP): 2.7 | selectivity ratio [2]: 0.56

O=NN(CCCl)C(=O)NC1CCCCC1 [LOMUSTINE]
ED50 (L1210): 37 mg/kg | LD10 (Mus musculus): 48 mg/kg | logP ([1]; read-out: logP): 2.8 | selectivity ratio [2]: 0.77

CO[C@H]1CC[C@H](NC(=O)N(CCCl)N=O)CC1
ED50 (L1210): 23 mg/kg | LD10 (Mus musculus): 44 mg/kg | logP ([1]; read-out: logP): 2.4 | selectivity ratio [2]: 0.52

COC(=O)[C@H]1CC[C@@H](NC(=O)N(CCCl)N=O)CC1
ED50 (L1210): 15 mg/kg | LD10 (Mus musculus): 54 mg/kg | logP ([1]; read-out: logP): 2.6 | selectivity ratio [2]: 0.28

O=NN(CCCl)C(=O)N[C@H]1CC[C@@H](C(=O)O)CC1
ED50 (L1210): 16 mg/kg | LD10 (Mus musculus): 26 mg/kg | logD [3]: -1.1 | selectivity ratio [2]: 0.62

O=NN(CCCl)C(=O)N[C@H]1CCCC[C@@H]1Cl (relative stereo)
ED50 (L1210): 36 mg/kg | LD10 (Mus musculus): 57 mg/kg | logP ([1]; read-out: logP): 2.7 | selectivity ratio [2]: 0.63

C[C@H]1CC[C@H](NC(=O)N(CCCl)N=O)CC1
ED50 (L1210): 18 mg/kg | LD10 (Mus musculus): 42 mg/kg | logP ([1]; read-out: logP): 3.3 | selectivity ratio [2]: 0.43

O=NN(CCCl)C(=O)N[C@H]1CC[C@H](C[C@H]2CC[C@H](NC(=O)N(CCCl)N=O)CC2)CC1
ED50 (L1210): 96 mg/kg | LD10 (Mus musculus): 250 mg/kg | logP ([1]; read-out: logP): 3.1 | selectivity ratio [2]: 0.38

O=NN(CCCl)C(=O)NCCCl [CARMUSTINE]
ED50 (L1210): 20 mg/kg | LD10 (Mus musculus): 41 mg/kg | logP ([1]; read-out: logP): 1.5 | selectivity ratio [2]: 0.49

C[C@H]1SC[C@@H](NC(=O)N(CCCl)N=O)CS1
ED50 (L1210): 16 mg/kg | LD10 (Mus musculus): 31 mg/kg | logP ([1]; read-out: logP): 2.6 | selectivity ratio [2]: 0.53

C[C@H]1CC[C@H](NC(=O)N(CCF)N=O)CC1
ED50 (L1210): 25 mg/kg | LD10 (Mus musculus): 44 mg/kg | logP ([1]; read-out: logP): 2.7 | selectivity ratio [2]: 0.57

CCCCCC(C)NC(=O)N(CCCl)N=O (stereo not given)
ED50 (L1210): 27 mg/kg | LD10 (Mus musculus): 57 mg/kg | logP ([1]; read-out: logP): 3.8

O=NN(CCCl)C(=O)N[C@H]1CC[C@H](CC(=O)O)CC1
ED50 (L1210): 12 mg/kg | LD10 (Mus musculus): 40 mg/kg | logD [3]: -0.6 | selectivity ratio [2]: 0.3

CC(=O)OC[C@H]1CC[C@H](NC(=O)N(CCCl)N=O)CC1
ED50 (L1210): 14 mg/kg | LD10 (Mus musculus): 28 mg/kg | logP ([1]; read-out: logP): 3.1 | selectivity ratio [2]: 0.5

O=NN(CCF)C(=O)N[C@H]1CC[C@@H](C(=O)O)CC1
ED50 (L1210): 30 mg/kg | LD10 (Mus musculus): 29 mg/kg | logD [3]: -1.7

COC(=O)[C@H]1CC[C@H](NC(=O)N(CCCl)N=O)CC1
ED50 (L1210): 14 mg/kg | LD10 (Mus musculus): 26 mg/kg | logP ([1]; read-out: logP): 2.6 | selectivity ratio [2]: 0.54

CC(=O)O[C@H]1CC[C@H](NC(=O)N(CCF)N=O)CC1
ED50 (L1210): 18 mg/kg | LD10 (Mus musculus): 36 mg/kg | logP ([1]; read-out: logP): 2 | selectivity ratio [2]: 0.5

C[C@H]1S(=O)(=O)C[C@@H](NC(=O)N(CCCl)N=O)CS1(=O)=O
ED50 (L1210): 18 mg/kg | LD10 (Mus musculus): 36 mg/kg | logP ([1]; read-out: logP): -0.4 | selectivity ratio [2]: 0.5

O=COC[C@H]1CC[C@H](NC(=O)N(CCCl)N=O)CC1
ED50 (L1210): 10 mg/kg | LD10 (Mus musculus): 22 mg/kg | logP ([1]; read-out: logP): 2.6 | selectivity ratio [2]: 0.45

O=NN(CCCl)C(=O)N[C@H]1CC[C@H](NC(=O)N(CCCl)N=O)CC1
ED50 (L1210): 71 mg/kg | LD10 (Mus musculus): 270 mg/kg | logP ([1]; read-out: logP): 2.7 | selectivity ratio [2]: 0.26

C[C@H]1CCC[C@H](NC(=O)N(CCCl)N=O)C1 (relative stereo)
ED50 (L1210): 53 mg/kg | LD10 (Mus musculus): 110 mg/kg | logP [1]: 3.3 | selectivity ratio [2]: 0.48

C[C@H]1S(=O)(=O)C[C@H](NC(=O)N(CCCl)N=O)CS1(=O)=O
ED50 (L1210): 19 mg/kg | LD10 (Mus musculus): 51 mg/kg | logP ([1]; read-out: logP): -0.4 | selectivity ratio [2]: 0.37

CC(=O)O[C@H]1CC[C@H](NC(=O)N(CCCl)N=O)CC1
ED50 (L1210): 18 mg/kg | LD10 (Mus musculus): 45 mg/kg | logP ([1]; read-out: logP): 2.6 | selectivity ratio [2]: 0.4

C[C@@H]1CCC[C@H](NC(=O)N(CCCl)N=O)C1 (relative stereo)
ED50 (L1210): 45 mg/kg | LD10 (Mus musculus): 120 mg/kg | logP ([1]; read-out: logP): 3.3 | selectivity ratio [2]: 0.38

CCOC(=O)[C@H]1CC[C@H](NC(=O)N(CCCl)N=O)CC1
ED50 (L1210): 17 mg/kg | LD10 (Mus musculus): 33 mg/kg | logP ([1]; read-out: logP): 3.1 | selectivity ratio [2]: 0.52

O=NN(CCCl)C(=O)N[C@H]1CC[C@@H](O)CC1
ED50 (L1210): 22 mg/kg | LD10 (Mus musculus): 46 mg/kg | logP ([1]; read-out: logP): 1.1 | selectivity ratio [2]: 0.48

O=NN(CCCl)C(=O)NC(C(=O)O)C1CCCCC1 (stereo not given)
ED50 (L1210): 50 mg/kg | LD10 (Mus musculus): 73 mg/kg | logD [3]: 0 | selectivity ratio [2]: 0.63

O=NN(CCCl)C(=O)N[C@H]1CC[C@H](C(=O)O)CC1
ED50 (L1210): 17 mg/kg | LD10 (Mus musculus): 30 mg/kg | logD [3]: -1.1 | selectivity ratio [2]: 0.57

O=NN(CCCl)C(=O)N[C@H]1CC[C@@H](CC(=O)O)CC1
ED50 (L1210): 27 mg/kg | LD10 (Mus musculus): 51 mg/kg | logD [3]: -0.6 | selectivity ratio [2]: 0.53

O=NN(CCCl)C(=O)N[C@H]1CC[C@@H](NC(=O)N(CCCl)N=O)CC1
ED50 (L1210): 40 mg/kg | LD10 (Mus musculus): 84 mg/kg | logP ([1]; read-out: logP): 2.7 | selectivity ratio [2]: 0.48

O=NN(CCCl)C(=O)N[C@H]1CC[C@H](O)CC1
ED50 (L1210): 14 mg/kg | LD10 (Mus musculus): 42 mg/kg | logP ([1]; read-out: logP): 1 | selectivity ratio [2]: 0.4

O=NN(CCCl)C(=O)N[C@H]1CC[C@H](CCl)CC1
ED50 (L1210): 43 mg/kg | LD10 (Mus musculus): 62 mg/kg | logP ([1]; read-out: logP): 3.7 | selectivity ratio [2]: 0.69

O=NN(CCCl)C(=O)N[C@H]1CCC[C@@H](C(=O)O)C1 (relative stereo)
ED50 (L1210): 21 mg/kg | LD10 (Mus musculus): 34 mg/kg | logD [3]: -1.1 | selectivity ratio [2]: 0.62

CC(=O)OC[C@H]1CC[C@H](NC(=O)N(CCF)N=O)CC1
ED50 (L1210): 45 mg/kg | LD10 (Mus musculus): 57 mg/kg | logP ([1]; read-out: logP): 2.5 | selectivity ratio [2]: 0.79

CO[C@H]1CC[C@@H](NC(=O)N(CCCl)N=O)CC1
ED50 (L1210): 20 mg/kg | LD10 (Mus musculus): 38 mg/kg | logP ([1]; read-out: logP): 2.4 | selectivity ratio [2]: 0.53

O=NN(CCF)C(=O)N[C@H]1CC[C@H](C(=O)O)CC1
ED50 (L1210): 30 mg/kg | LD10 (Mus musculus): 56 mg/kg | logD [3]: -1.7

CCOC(=O)[C@@H]1CCC[C@H](NC(=O)N(CCCl)N=O)C1 (relative stereo)
ED50 (L1210): 28 mg/kg | LD10 (Mus musculus): 50 mg/kg | logP ([1]; read-out: logP): 3.1 | selectivity ratio [2]: 0.56
